Experimental findings from article PMC3145970, “Specific CLK Inhibitors from a Novel Chemotype for Regulation of Alternative Splicing” (Chemistry & Biology, 2011) are described below.

Where two headings read alike, the source gives them in different places.

Test in all cases: Thermal stability shift assay
Common to all, as to assay type: binding

One test concerns the target smMLCK (Homo sapiens, UniProt Q15746). The following applies: read-out: Tm shift smMLCK. As to the method:
(§1) Thermal denaturation experiments were carried out in an Mx3005p real-time PCR machine (Agilent) using a protein concentration of 2 μM and an inhibitor concentration of 10 μM. Samples were buffered in 10 mM HEPES (pH 7.5), 500 mM NaCl and a 1:1000 dilution of SyproOrange (Invitrogen). The assay and data evaluation were carried out as described ([Bullock et al., 2005])

The target of another test is T1, PKG1 (Homo sapiens, UniProt Q13976).
T1 sequence (Q13976 1-671): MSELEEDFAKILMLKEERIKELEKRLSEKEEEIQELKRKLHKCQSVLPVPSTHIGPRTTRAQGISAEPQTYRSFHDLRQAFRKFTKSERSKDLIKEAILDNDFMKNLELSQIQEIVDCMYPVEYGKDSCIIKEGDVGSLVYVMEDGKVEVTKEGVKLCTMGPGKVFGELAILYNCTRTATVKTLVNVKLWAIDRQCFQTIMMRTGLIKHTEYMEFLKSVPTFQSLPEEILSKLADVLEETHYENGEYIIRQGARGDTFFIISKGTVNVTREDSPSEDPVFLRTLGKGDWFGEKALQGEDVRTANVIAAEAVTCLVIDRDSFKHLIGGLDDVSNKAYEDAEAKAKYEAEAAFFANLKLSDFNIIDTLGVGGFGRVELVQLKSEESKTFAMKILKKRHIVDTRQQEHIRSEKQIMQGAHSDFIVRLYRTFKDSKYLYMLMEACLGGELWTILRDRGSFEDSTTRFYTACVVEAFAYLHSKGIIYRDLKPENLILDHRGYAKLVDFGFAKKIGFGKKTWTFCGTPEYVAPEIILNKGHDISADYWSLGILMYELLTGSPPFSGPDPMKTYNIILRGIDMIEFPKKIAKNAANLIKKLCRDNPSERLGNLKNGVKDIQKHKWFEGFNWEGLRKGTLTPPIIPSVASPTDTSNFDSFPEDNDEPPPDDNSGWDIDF
The following applies: read-out: Tm shift PKG1. The procedure:
as §1

The target of a further test is T2, MST2 (Homo sapiens, UniProt Q13188).
T2 construct: purchased in-house (SGC Oxford thermal shift panel)
T2 sequence (Q13188 1-491): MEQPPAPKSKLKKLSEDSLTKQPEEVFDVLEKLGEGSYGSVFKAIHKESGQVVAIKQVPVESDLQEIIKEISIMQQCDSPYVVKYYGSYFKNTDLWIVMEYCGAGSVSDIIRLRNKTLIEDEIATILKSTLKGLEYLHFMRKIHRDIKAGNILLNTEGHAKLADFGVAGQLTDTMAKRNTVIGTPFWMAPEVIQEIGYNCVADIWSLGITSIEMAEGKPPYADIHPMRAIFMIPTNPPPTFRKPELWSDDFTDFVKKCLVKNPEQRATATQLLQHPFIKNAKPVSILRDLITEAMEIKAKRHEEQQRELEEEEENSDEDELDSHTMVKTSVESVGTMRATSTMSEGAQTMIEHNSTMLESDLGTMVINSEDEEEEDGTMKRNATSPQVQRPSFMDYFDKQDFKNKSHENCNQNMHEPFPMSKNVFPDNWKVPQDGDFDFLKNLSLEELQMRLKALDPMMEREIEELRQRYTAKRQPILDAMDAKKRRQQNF
Particulars: read-out: Tm shift MST2. As to the method:
as §1

A further test concerns the target PKN2 (Homo sapiens, UniProt Q16513). The following applies: read-out: Tm shift PKN2. The procedure: as §1
Another test deals with T3, RHOK (Homo sapiens, UniProt Q15835).
T3 sequence (Q15835 1-563): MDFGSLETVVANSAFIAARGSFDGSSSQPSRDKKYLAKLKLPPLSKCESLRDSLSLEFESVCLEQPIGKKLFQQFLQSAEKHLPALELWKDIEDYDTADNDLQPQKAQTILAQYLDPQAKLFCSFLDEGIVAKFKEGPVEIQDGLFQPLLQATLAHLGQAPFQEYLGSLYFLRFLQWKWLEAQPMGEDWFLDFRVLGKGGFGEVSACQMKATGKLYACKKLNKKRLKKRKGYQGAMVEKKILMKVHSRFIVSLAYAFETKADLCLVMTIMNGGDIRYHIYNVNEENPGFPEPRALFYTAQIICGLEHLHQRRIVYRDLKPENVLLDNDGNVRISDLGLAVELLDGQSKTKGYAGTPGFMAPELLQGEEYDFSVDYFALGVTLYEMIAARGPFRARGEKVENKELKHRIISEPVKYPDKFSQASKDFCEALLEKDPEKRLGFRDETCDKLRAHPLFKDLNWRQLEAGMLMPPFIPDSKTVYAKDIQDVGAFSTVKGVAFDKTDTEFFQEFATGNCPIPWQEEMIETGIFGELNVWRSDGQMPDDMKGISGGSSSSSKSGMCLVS
Particulars: read-out: Tm shift RHOK. The procedure:
as §1

A further test addresses T4, DCAMKL1 (Homo sapiens, UniProt O15075).
T4 construct: purchased in-house (SGC Oxford thermal shift panel)
T4 sequence (O15075 1-740): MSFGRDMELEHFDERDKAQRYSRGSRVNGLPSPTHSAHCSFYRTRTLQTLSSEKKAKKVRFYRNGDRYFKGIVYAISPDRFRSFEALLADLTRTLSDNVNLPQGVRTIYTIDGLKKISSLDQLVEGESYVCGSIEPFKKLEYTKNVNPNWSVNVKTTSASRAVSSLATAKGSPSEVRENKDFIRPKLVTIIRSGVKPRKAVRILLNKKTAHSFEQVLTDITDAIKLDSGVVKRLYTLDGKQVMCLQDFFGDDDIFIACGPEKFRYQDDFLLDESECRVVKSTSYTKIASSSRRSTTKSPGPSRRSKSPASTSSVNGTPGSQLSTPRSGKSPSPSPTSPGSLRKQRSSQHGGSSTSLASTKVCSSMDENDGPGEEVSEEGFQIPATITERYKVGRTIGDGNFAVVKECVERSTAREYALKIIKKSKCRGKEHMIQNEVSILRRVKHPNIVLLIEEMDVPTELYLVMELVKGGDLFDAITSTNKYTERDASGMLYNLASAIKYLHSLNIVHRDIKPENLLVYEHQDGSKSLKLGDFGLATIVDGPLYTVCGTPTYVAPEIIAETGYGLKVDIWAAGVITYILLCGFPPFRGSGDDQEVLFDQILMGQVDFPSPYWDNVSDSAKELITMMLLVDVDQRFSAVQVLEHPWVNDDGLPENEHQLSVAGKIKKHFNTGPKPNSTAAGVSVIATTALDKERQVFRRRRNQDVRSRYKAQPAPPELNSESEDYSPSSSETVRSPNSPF
The following applies: read-out: Tm shift DCAMKL1. As to the method: as §1

PKN2, sequence (Q16513 whole entry): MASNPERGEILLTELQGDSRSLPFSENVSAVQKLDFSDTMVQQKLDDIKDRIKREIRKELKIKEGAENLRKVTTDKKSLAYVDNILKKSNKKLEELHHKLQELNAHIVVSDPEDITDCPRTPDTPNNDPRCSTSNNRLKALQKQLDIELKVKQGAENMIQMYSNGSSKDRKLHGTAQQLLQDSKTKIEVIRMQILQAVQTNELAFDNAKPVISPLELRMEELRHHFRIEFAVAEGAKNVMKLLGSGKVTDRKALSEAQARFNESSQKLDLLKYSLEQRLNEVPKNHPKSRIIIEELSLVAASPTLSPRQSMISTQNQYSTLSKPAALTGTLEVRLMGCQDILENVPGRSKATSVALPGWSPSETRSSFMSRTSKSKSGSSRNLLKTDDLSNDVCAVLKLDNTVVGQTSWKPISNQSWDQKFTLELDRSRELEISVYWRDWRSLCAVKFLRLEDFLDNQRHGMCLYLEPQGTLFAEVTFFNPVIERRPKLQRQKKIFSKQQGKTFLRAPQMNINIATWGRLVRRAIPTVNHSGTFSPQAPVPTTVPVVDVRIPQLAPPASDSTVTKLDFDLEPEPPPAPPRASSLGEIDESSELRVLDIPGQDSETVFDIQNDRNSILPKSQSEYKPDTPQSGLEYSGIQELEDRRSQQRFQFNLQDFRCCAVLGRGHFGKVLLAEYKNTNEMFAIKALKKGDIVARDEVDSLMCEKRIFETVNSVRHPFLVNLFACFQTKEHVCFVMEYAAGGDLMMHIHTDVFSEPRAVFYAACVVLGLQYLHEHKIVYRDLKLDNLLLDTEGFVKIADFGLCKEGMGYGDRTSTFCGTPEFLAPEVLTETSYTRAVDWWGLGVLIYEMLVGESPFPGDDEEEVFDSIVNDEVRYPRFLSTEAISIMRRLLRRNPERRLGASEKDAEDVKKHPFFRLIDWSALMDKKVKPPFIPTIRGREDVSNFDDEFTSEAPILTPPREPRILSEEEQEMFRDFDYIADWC
smMLCK, sequence (Q15746 whole entry): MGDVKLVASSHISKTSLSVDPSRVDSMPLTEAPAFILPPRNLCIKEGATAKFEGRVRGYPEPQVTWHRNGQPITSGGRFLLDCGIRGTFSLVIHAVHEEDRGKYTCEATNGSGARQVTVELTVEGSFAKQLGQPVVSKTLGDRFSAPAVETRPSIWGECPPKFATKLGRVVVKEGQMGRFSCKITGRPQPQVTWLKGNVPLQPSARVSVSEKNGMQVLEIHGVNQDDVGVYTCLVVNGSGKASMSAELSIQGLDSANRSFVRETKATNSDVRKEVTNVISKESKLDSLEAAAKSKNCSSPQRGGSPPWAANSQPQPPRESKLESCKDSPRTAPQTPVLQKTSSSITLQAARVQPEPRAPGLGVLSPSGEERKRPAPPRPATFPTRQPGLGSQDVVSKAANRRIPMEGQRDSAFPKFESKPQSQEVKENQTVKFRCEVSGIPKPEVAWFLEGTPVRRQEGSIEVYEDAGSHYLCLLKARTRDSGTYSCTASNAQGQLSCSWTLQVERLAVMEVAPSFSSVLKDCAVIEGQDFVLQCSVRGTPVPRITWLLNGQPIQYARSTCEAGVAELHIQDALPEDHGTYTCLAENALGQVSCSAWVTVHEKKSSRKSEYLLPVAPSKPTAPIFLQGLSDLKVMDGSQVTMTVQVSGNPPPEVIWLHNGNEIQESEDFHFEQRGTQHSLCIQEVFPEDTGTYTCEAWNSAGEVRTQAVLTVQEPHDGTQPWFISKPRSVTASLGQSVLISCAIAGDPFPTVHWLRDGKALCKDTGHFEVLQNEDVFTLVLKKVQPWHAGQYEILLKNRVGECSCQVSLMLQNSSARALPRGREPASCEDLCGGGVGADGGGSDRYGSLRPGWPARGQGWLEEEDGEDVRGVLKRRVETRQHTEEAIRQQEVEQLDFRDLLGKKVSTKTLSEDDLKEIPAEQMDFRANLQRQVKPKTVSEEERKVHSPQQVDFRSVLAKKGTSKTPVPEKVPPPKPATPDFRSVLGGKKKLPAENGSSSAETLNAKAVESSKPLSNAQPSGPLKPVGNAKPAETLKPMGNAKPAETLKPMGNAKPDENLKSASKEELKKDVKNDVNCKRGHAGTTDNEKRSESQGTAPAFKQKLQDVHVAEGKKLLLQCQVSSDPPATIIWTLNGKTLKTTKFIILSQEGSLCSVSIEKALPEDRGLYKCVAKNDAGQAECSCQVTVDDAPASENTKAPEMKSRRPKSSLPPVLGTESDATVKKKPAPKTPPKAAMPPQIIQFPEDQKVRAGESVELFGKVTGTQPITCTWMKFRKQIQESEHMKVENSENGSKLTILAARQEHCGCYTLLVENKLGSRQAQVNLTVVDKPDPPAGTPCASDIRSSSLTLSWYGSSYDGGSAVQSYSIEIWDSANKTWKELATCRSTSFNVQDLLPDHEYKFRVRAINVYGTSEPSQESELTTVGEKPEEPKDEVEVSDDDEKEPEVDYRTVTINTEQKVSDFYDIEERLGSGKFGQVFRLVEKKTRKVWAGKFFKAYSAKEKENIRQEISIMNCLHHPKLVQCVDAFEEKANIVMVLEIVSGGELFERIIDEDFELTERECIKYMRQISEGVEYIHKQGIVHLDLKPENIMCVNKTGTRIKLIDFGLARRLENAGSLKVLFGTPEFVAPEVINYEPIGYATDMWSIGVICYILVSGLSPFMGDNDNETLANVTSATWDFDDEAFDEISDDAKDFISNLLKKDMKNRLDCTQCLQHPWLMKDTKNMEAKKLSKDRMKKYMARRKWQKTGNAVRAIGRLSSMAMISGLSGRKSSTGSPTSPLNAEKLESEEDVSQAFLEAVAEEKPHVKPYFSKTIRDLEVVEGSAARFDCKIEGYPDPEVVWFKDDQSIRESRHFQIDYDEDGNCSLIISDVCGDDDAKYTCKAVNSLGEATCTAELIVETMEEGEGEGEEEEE

On to `CCOC(=O)c1c(/C(C#N)=C\N)c2ccc(Cl)c(Cl)c2n1C` [KH-CB19, (E)-Ethyl 3-(2-Amino-1-Cyanovinyl)-6,7-Dichloro-1-Methyl-1H-Indole-2-Carboxylate], for which the ΔTm at 10 µM on smMLCK was 0.5 °C; on PKG1, 0.8 °C; at MST2 it was 0.2 °C; on PKN2 it was 0.6 °C; on RHOK, 0.5 °C; at DCAMKL1, -0.2 °C.
With `NC1=NC(=O)/C(=C2\CCNC(=O)c3[nH]c(Br)cc32)N1` [Hymenialdisine, hymenialdisine, reference compound], the ΔTm at 10 µM at smMLCK (inhibitor 10 μM) was 1.9 °C; on PKG1 (inhibitor 10 μM) it was 1.4 °C; at MST2 (inhibitor 10 μM) it was 3.9 °C; on PKN2 (inhibitor 10 μM) it was 0.8 °C; at RHOK (inhibitor 10 μM) it was 0.7 °C; on DCAMKL1 (inhibitor 10 μM), 0.5 °C.
In the case of `CCOC(=O)c1c(C(C#N)=CN(C)C)c2ccc(Cl)c(Cl)c2n1C` (mixture of isomers) [compound 2, (E/Z)-Ethyl 6,7-Dichloro-3-[1-Cyano-2-(Dimethylamino)Vinyl]-1-Methyl-1H-Indole-2-Carboxylate], the ΔTm at 10 µM at smMLCK (inhibitor 10 μM) is 1.1 °C; on PKG1 (inhibitor 10 μM), 0.3 °C; at MST2 (inhibitor 10 μM) it was 0.3 °C; on PKN2 (inhibitor 10 μM) it was -0.5 °C; on RHOK (inhibitor 10 μM) it was 0.9 °C; at DCAMKL1 (inhibitor 10 μM) it was 0.7 °C.
Turning to `CCOC(=O)c1c(C(C#N)=CN)c2ccc(Cl)c(Cl)c2n1C` (mixture of isomers) [KH-CB20, (E/Z)-Ethyl 3-(2-Amino-1-Cyanovinyl)-6,7-Dichloro-1-Methyl-1H-Indole-2-Carboxylate], the ΔTm at 10 µM was 0.6 °C on smMLCK; 0.5 °C on PKG1; 0.4 °C at MST2; 0.1 °C on PKN2; 0.3 °C at RHOK; -0.1 °C at DCAMKL1.
Consider `Cn1c2c(Cl)c(Cl)ccc2c2c(C#N)c[nH]c(=O)c21` [compound 3, 7,8-Dichloro-9-Methyl-1-Oxo-2,9-Dihydro-1H-Pyrido[3,4-b]Indole-4-Carbonitrile], for which the ΔTm at 10 µM was 0.5 °C at smMLCK (inhibitor 10 μM); 0.6 °C on PKG1 (inhibitor 10 μM); -0.5 °C on MST2 (inhibitor 10 μM); 2.3 °C at PKN2 (inhibitor 10 μM); 0.9 °C on RHOK (inhibitor 10 μM); 0 °C on DCAMKL1 (inhibitor 10 μM).
